According to US20070049564A1 (Wyeth, priority 2005, published 2007):
≈ marks a conversion by molar mass, not a printed value. Like-named read-outs stand apart in the source and are kept apart here.

Tests used:
E. coli GC 2231 = assay: MIC, broth microdilution; settings: Escherichia coli
S. aureus GC 6335 = assay: MIC, broth microdilution; settings: Staphylococcus aureus
E. coli GC 2232 = assay: MIC, broth microdilution; settings: Escherichia coli
E. faecium GC 4556 = assay: MIC, broth microdilution; settings: Enterococcus faecium
E. coli GC 2236 = assay: MIC, broth microdilution; settings: Escherichia coli
P. aeruginosa GC 2214 = assay: MIC, broth microdilution; settings: Pseudomonas aeruginosa
S. aureus GC 6466 = assay: MIC, broth microdilution; settings: Staphylococcus aureus
E. coli GC 2203 = assay: MIC, broth microdilution; settings: Escherichia coli
S. pyogenes GC 4563 = assay: MIC, broth microdilution; settings: Streptococcus pyogenes
E. coli = assay: Range of MIC for E. coli strains; settings: Escherichia coli
E. coli GC 2233 = assay: MIC, broth microdilution; settings: Escherichia coli
E. faecium GC 2243 = assay: MIC, broth microdilution; settings: Enterococcus faecium
E. coli GC 2234 = assay: MIC, broth microdilution; settings: Escherichia coli
S. aureus GC 2216 = assay: MIC, broth microdilution; settings: Staphylococcus aureus
S. aureus GC 6469 = assay: MIC, broth microdilution; settings: Staphylococcus aureus
E. faecalis GC 2265 = assay: MIC, broth microdilution; settings: Enterococcus faecalis
E. coli GC 3226 = assay: MIC, broth microdilution; settings: Escherichia coli
E. coli GC 2270 = assay: MIC, broth microdilution; settings: Escherichia coli
E. coli GC 2271 = assay: MIC, broth microdilution; settings: Escherichia coli
Staph. = assay: Range of MIC for Staph. strains, including MRSA; settings: Staphylococcus aureus, MRSA

MIC (E. coli GC 2231; GC2231, read-out: MINIMAL INHIBITORY CONCENTRATION MIC, pre-incubated in Mouse Serum): 2 µg/mL (≈ 2.53 µM)
MIC (E. coli GC 2231; GC2231, read-out: MINIMAL INHIBITORY CONCENTRATION MIC, pre-incubated in Water): > 64 µg/mL
MIC (S. aureus GC 6335; GC6335, read-out: MINIMAL INHIBITORY CONCENTRATION MIC, pre-incubated in Mouse Serum): 2 µg/mL (≈ 2.53 µM)
MIC (S. aureus GC 6335; GC6335, read-out: MINIMAL INHIBITORY CONCENTRATION MIC, pre-incubated in Water): 8 µg/mL (≈ 10.1 µM)
MIC (E. coli GC 2232; GC2232, read-out: MINIMAL INHIBITORY CONCENTRATION MIC, pre-incubated in Mouse Serum): 2 µg/mL (≈ 2.53 µM)
MIC (E. coli GC 2232; GC2232, read-out: MINIMAL INHIBITORY CONCENTRATION MIC, pre-incubated in Water): > 64 µg/mL
MIC (E. faecium GC 4556; GC4556, read-out: MINIMAL INHIBITORY CONCENTRATION MIC, pre-incubated in Mouse Serum): 2 µg/mL (≈ 2.53 µM)
MIC (E. faecium GC 4556; GC4556, read-out: MINIMAL INHIBITORY CONCENTRATION MIC, pre-incubated in Water): 64 µg/mL (≈ 80.8 µM)
MIC (E. coli GC 2236; GC2236, read-out: MINIMAL INHIBITORY CONCENTRATION MIC, pre-incubated in Mouse Serum): 2 µg/mL (≈ 2.53 µM)
MIC (E. coli GC 2236; GC2236, read-out: MINIMAL INHIBITORY CONCENTRATION MIC, pre-incubated in Water): > 64 µg/mL
MIC (P. aeruginosa GC 2214; GC2214, read-out: MINIMAL INHIBITORY CONCENTRATION MIC, pre-incubated in Mouse Serum): > 64 µg/mL
MIC (P. aeruginosa GC 2214; GC2214, read-out: MINIMAL INHIBITORY CONCENTRATION MIC, pre-incubated in Water): > 64 µg/mL
MIC (S. aureus GC 6466; GC6466, read-out: MINIMAL INHIBITORY CONCENTRATION MIC, pre-incubated in Mouse Serum): 0.5 µg/mL (≈ 0.631 µM)
MIC (S. aureus GC 6466; GC6466, read-out: MINIMAL INHIBITORY CONCENTRATION MIC, pre-incubated in Water): 2 µg/mL (≈ 2.53 µM)
MIC (E. coli GC 2203; GC2203, read-out: MINIMAL INHIBITORY CONCENTRATION MIC, pre-incubated in Mouse Serum): 1 µg/mL (≈ 1.26 µM)
MIC (E. coli GC 2203; GC2203, read-out: MINIMAL INHIBITORY CONCENTRATION MIC, pre-incubated in Water): > 64 µg/mL
MIC (S. pyogenes GC 4563; GC4563, read-out: MINIMAL INHIBITORY CONCENTRATION MIC, pre-incubated in Mouse Serum): 0.5 µg/mL (≈ 0.631 µM)
MIC (S. pyogenes GC 4563; GC4563, read-out: MINIMAL INHIBITORY CONCENTRATION MIC, pre-incubated in Water): 1 µg/mL (≈ 1.26 µM)
MIC (E. coli; 20 h, read-out: Range of MIC, E. coli (Mouse Serum)): 1 to 8 µg/mL (≈ 1.26 to 10.1 µM)
MIC (E. coli; read-out: Minimum inhibitory concentration (MIC), E. coli (mouse serum)): 1 to 8 µg/mL (≈ 1.26 to 10.1 µM)
MIC (E. coli; read-out: Minimum inhibitory concentration (MIC), E. coli (water)): > 64 µg/mL
MIC (E. coli; read-out: Range of MIC, E. coli (Water)): > 64 µg/mL
MIC (E. coli GC 2233; GC2233, read-out: MINIMAL INHIBITORY CONCENTRATION MIC, pre-incubated in Mouse Serum): 2 µg/mL (≈ 2.53 µM)
MIC (E. coli GC 2233; GC2233, read-out: MINIMAL INHIBITORY CONCENTRATION MIC, pre-incubated in Water): > 64 µg/mL
MIC (E. faecium GC 2243; GC2243, read-out: MINIMAL INHIBITORY CONCENTRATION MIC, pre-incubated in Mouse Serum): 1 µg/mL (≈ 1.26 µM)
MIC (E. faecium GC 2243; GC2243, read-out: MINIMAL INHIBITORY CONCENTRATION MIC, pre-incubated in Water): 8 µg/mL (≈ 10.1 µM)
MIC (E. coli GC 2234; GC2234, read-out: MINIMAL INHIBITORY CONCENTRATION MIC, pre-incubated in Mouse Serum): 1 µg/mL (≈ 1.26 µM)
MIC (E. coli GC 2234; GC2234, read-out: MINIMAL INHIBITORY CONCENTRATION MIC, pre-incubated in Water): > 64 µg/mL
MIC (S. aureus GC 2216; GC2216, read-out: MINIMAL INHIBITORY CONCENTRATION MIC, pre-incubated in Mouse Serum): 1 µg/mL (≈ 1.26 µM)
MIC (S. aureus GC 2216; GC2216, read-out: MINIMAL INHIBITORY CONCENTRATION MIC, pre-incubated in Water): 4 µg/mL (≈ 5.05 µM)
MIC (S. aureus GC 6469; GC6469, read-out: MINIMAL INHIBITORY CONCENTRATION MIC, pre-incubated in Mouse Serum): 4 µg/mL (≈ 5.05 µM)
MIC (S. aureus GC 6469; GC6469, read-out: MINIMAL INHIBITORY CONCENTRATION MIC, pre-incubated in Water): 64 µg/mL (≈ 80.8 µM)
MIC (E. faecalis GC 2265; GC2265, read-out: MINIMAL INHIBITORY CONCENTRATION MIC, pre-incubated in Mouse Serum): 2 µg/mL (≈ 2.53 µM)
MIC (E. faecalis GC 2265; GC2265, read-out: MINIMAL INHIBITORY CONCENTRATION MIC, pre-incubated in Water): 64 µg/mL (≈ 80.8 µM)
MIC (E. coli GC 3226; GC3226, read-out: MINIMAL INHIBITORY CONCENTRATION MIC, pre-incubated in Mouse Serum): 8 µg/mL (≈ 10.1 µM)
MIC (E. coli GC 3226; GC3226, read-out: MINIMAL INHIBITORY CONCENTRATION MIC, pre-incubated in Water): > 64 µg/mL
MIC (E. coli GC 2270; GC2270, read-out: MINIMAL INHIBITORY CONCENTRATION MIC, pre-incubated in Mouse Serum): 1 µg/mL (≈ 1.26 µM)
MIC (E. coli GC 2270; GC2270, read-out: MINIMAL INHIBITORY CONCENTRATION MIC, pre-incubated in Water): > 64 µg/mL
MIC (E. coli GC 2271; GC2271, read-out: MINIMAL INHIBITORY CONCENTRATION MIC, pre-incubated in Mouse Serum): 1 µg/mL (≈ 1.26 µM)
MIC (E. coli GC 2271; GC2271, read-out: MINIMAL INHIBITORY CONCENTRATION MIC, pre-incubated in Water): > 64 µg/mL
MIC (Staph.; read-out: Minimum inhibitory concentration (MIC), Staph. (mouse serum)): 0.5 to 4 µg/mL (≈ 0.631 to 5.05 µM)
MIC (Staph.; read-out: Range of MIC, Staph (Mouse Serum)): 0.5 to 4 µg/mL (≈ 0.631 to 5.05 µM)
SMILES: CCCCN(CC(=O)Nc1cc(N(C)C)c2c(c1O)C(=O)C1=C(O)[C@]3(O)C(=O)C(C(N)=O)=C(O)[C@@H](N(C)C)[C@@H]3C[C@@H]1C2)C(=O)OCOC(=O)c1cc(C)cc(C)c1 [Example 22, ({[(2-{[(5aR,6aS,7S,10aS)-9-(aminocarbonyl)-4,7-bis(dimethylamino)-1,8,10a,11-tetrahydroxy-10,12-dioxo-5,5a,6,6a,7,10,10a,12-octahydrotetracen-2-yl]amino}-2-oxoethyl)(butyl)amino]carbonyl}oxy)methyl 3,5-dimethylbenzoate]
